Assays:
[1] = Half life in human liver microsomes at 0.5 uM by LC-MS/MS analysis; format: ADME, Microsome
[2] = AUC (0 to t) in Sprague-Dawley rat at […], iv by LC-MS/MS analysis; format: ADME, organism-based; settings: in vivo
[3] = AUC (0 to infinity) in Sprague-Dawley rat at […], iv by LC-MS/MS analysis; format: ADME, organism-based; parameters: dose 2.5 mg/kg, time infinity, route intravenous; settings: in vivo
[4] = Half life in Sprague-Dawley rat at […], iv by LC-MS/MS analysis; format: ADME, organism-based; settings: in vivo
[5] = Tmax in Sprague-Dawley rat at […], iv by LC-MS/MS analysis; format: ADME, organism-based; settings: in vivo
[6] = Clearance in Sprague-Dawley rat at […], iv by LC-MS/MS analysis; format: ADME, organism-based; settings: in vivo
[7] = Volume of distribution at steady state in Sprague-Dawley rat at […], iv by LC-MS/MS analysis; format: ADME, organism-based; settings: in vivo, read-out: Vdss
[8] = Cmax in Sprague-Dawley rat at […], iv by LC-MS/MS analysis; format: ADME, organism-based; parameters: dose 2.5 mg/kg, route intravenous; settings: in vivo
[9] = AUC (0 to t) in Sprague-Dawley rat at 10 mg/kg, po by LC-MS/MS analysis; format: ADME, organism-based; settings: in vivo
[10] = AUC (0 to infinity) in Sprague-Dawley rat at 10 mg/kg, po by LC-MS/MS analysis; format: ADME, organism-based; parameters: dose 10 mg/kg, route oral, time infinity; settings: in vivo
[11] = Tmax in Sprague-Dawley rat at 10 mg/kg, po by LC-MS/MS analysis; format: ADME, organism-based; settings: in vivo
[12] = Cmax in Sprague-Dawley rat at 10 mg/kg, po by LC-MS/MS analysis; format: ADME, organism-based; parameters: dose 10 mg/kg, route oral; settings: in vivo
[13] = Oral bioavailability in Sprague-Dawley rat at 10 mg/kg by LC-MS/MS analysis; format: ADME, organism-based; settings: in vivo

Row | half-life at 0.5 µM [1] | AUC(0-t) [2] | AUC(0-inf) [3] | half-life [4] | Tmax [5] | clearance [6] | Vd [7] | Cmax [8] | AUC(0-t) [9] | AUC(0-inf) [10] | Tmax [11] | Cmax [12] | bioavailability [13] | SMILES
1 | 6.5 h | 549 ng·h/mL | 607 ng·h/mL | 7.7 h | 4.98 min | 68.3 mL/min/kg | 45.7 L/kg | 272 ng/mL | 503 ng·h/mL | 522 ng·h/mL | 4 h | 72.1 ng/mL | 22.9% | Cc1ccc(C(=O)Nc2ccc(OCC3CCN(C)CC3)c(C(F)(F)F)c2)cc1NC(=O)C1(c2ncnc3[nH]ccc23)CC1
2 | 5.6 h |  |  |  |  |  |  |  |  |  |  |  |  | CNC(=O)c1cc(Oc2ccc(NC(=O)Nc3ccc(Cl)c(C(F)(F)F)c3)cc2)ccn1 [SORAFENIB]

From ChEMBL document CHEMBL4330078, “Discovery of potent Pan-Raf inhibitors with increased solubility to overcome drug resistance” (Eur J Med Chem, 2019)
